Experimental data taken from US20080221074A1, “Drug Screen and Treatment Method” (priority 2006, published 2008).
Like-named read-outs stand apart in the source and are kept apart here.

Columns and labels:
NF-κB = test: inhibition of NF-κB activation in NF-κB-bla THP-1 cells after LPS stimulation; type: cell-based, human
Description: Inhibition of NF-κB in vitro. […] Activation of NF-κB increases expression of a number of genes that mediate inflammation. This protocol used human THP-1 cells, which are human mononuclear blood cells with a monocyte phenotype. The cell line, referred to as NF-κB-bla THP-1, contained a β-lactamase reporter gene under the control of the NF-kB response element (Invitrogen, CellSensor™, product No. K1176). In this cell line, the β-lactamase reporter gene is stably integrated in the THP-1 cells. This cell line was used to detect agonists or antagonists of the NF-κB signaling pathway. These NF-κB-bla THP-1 cells respond to the presence of tumor necrosis factor alpha (TNFα) or bacterial lipopolysaccharide (LPS) by increased expression of the β-lactamase reporter gene. The level of β-lactamase enzyme activity was measured by fluorescence resonance energy transfer ratiometric detection. TNFα and LPS are both potent inflammation-inducing agents that activate NF-κB in THP1 cells. In this assay, compounds that decrease NF-κB activity, and thus β-lactamase, in the presence of TNFα or LPS are exerting an anti-inflammation activity.
The NF-κB-bla THP-1 cells were maintained by passaging or feeding as needed. […] The cells were plated at 20,000 cells/well in a 384-well Black-wall, clear bottom assay plates (Costar#3712-TC low fluorescence background plates) approximately 24 hours before adding either TNFα at 10 ng/mL or LPS at 0.2 ng/mL to activate NF-κB.
The assays were usually conducted 2-4 times for each compound and the values shown below are averages for each compound.

EAE = test: PLP-induced EAE, treatment from clinical onset; type: in vivo, female SJL mice; settings: for course of EAE compared to vehicle-treated mice / mean cumulative score, treatment period: 0.1 mg q.d. po from clinical onset; for mean cumulative score, treatment period: day 1 to 30; for mean cumulative score, follow-up period: day 31 to day 54, post treatment
Experimental: The protocol for conducting the EAE animal model was described in (D. Auci et. al., Ann. NY. Acad. Sci. USA, 1051:730-42, 2005). Female SJL mice (6-8 week old, average body weight of 25 g) obtained from Charles-River were kept under standard laboratory conditions (non specific pathogen germ free) with ad libitum food and water and were allowed to adapt one week to their environment before commencing the study. […] EAA was induced with 200 μL of a 1:1 emulsion of 75 μg proteolipid protein (PLP) and 6 mg/mL Mycobacterium tuberculosis H37RA in complete Freund's adjuvant (CFA). The 200 μL injection was divided among four sites that drained into the auxiliary and inguinal lymphnodes. Pertussis toxin was used as a co-adjuvant and was administered i.p. at 200 ng/mouse on day zero and day two post immunization. Groups were treated with 0.1 mg of compound in 100 μL vehicle, or with vehicle alone, q.d. po (oral gavage) starting at clinical onset of disease and continuing through to day 30 post immunization. […] Clinical grading was carried out by an observer unaware of the treatment: 0=no illness, 1=flaccid tail, 2=moderate paraparesis, 3=severe paraparesis, 4=moribund state, 5=death.

[1] = system: human MG-63 osteosarcoma cell line; test: reversal of dexamethasone effects in MG-63 osteoblasts; type: cell-based; settings: for reversal of the decrease in osteoprotegerin synthesis: 30 nM dexamethasone, compound concentration stated with each value (17α-ethynyl triol: 1 nM)
[2] = system: carrageenan-λ induced pleurisy; test: carrageenan-λ induced lung (pleural cavity) inflammation; type: in vivo, CD1 male mice; settings: exudate 4 h after
Description: Treatment of lung inflammation. Three compounds, 3β,16α-dihydroxy-17-oxoandrostane, 3α,16β,17β-trihydroxyandrostane and 3α,16α,17α-trihydroxyandrostane were used to treat inflammation in mice essentially as described (D. Auci et al., Ann. New York Acad. Sci. 1051:730-742 2005). Five to 8 week old CD1 male mice (Charles River, Calco, Italy) were used for the study. The animals were housed in a controlled environment and provided with standard rodent chow and water. Animal care was in compliance with applicable regulations on protection of animals. Mice were allocated into one of the following groups: (1) mice treated with 2% carrageenan-k in saline (carrageenan-λ treated control group), (2) mice treated with 0.1 mg, 0.01 mg or 0.001 mg 3β,16α-dihydroxy-17-oxoandrostane by subcutaneous (s.c.) injection 24 h and 1 h before carrageenan-λ administration, (3) mice treated with 0.1 mg, 0.01 mg or 0.001 mg of 3α,16α,17α-trihydroxyandrostane by s.c. injection 24 and 1 h before carrageenan; (4) mice treated with 0.1 mg, 0.01 mg or 0.001 mg […],16β,17β-trihydroxyandrostane by s.c. injection 24 h and 1 h before carrageenan-λ administration; (5) mice treated with vehicle (0.1% carboxymethylcellulose, 0.9% saline, 2% tween 80, 0.05% phenol) s.c. 24 h and 1 h before carrageenan-λ administration; (6) mice treated with rabbit anti-mouse polyclonal anti-TNF-α antibody (200 μg) given as an intraperitoneal bolus 24 h and 1 h before carrageenan-λ administration (positive control group); and (7) sham-operated mice that were not treated with carrageenan-λ. Each group consisted of 10 mice. All treatments were given in a final volume of 100 μL. Lung (pleural cavity) inflammation was induced as follows. The mice were anaesthetised with isoflurane and a skin incision was made at the level of the left sixth intercostal space. The underlying muscle was dissected and either 0.1 mL saline (control) or 0.1 mL saline containing 2% λ-carrageenan was injected into the pleural cavity. The carrageenan-λ is a potent inducer of inflammation, which is manifested in this protocol by accumulation of fluid and neutrophils in the pleural cavity. The incision was closed with a suture and the animals were allowed to recover.
At 4 h after the injection of carrageenan-λ, the animals were euthanized by exposure to CO2. The chest was carefully opened and the pleural cavity rinsed with 1 mL of saline solution containing heparin (5 U/mL) and indomethacin (10 μg/mL). The exudate and washing solution were removed by aspiration and the total volume measured. Any exudate contaminated with blood was discarded. The amount of exudate was calculated by subtracting the injected 1 mL volume from the total pleural cavity volume that was recovered. The neutrophils in the exudate were suspended in phosphate-buffer saline and counted with an optical microscope in a Burker's chamber after Trypan Blue staining. The results were analysed by one-way ANOVA followed by a Bonferroni post-hoc test for multiple comparisons. A p-value less than 0.05 was considered significant. For statistical analysis each group was compared to the control group of mice that were challenged with carrageenan-k and received no other treatment.
The table below describes the number of neutrophils from the treated animal groups relative to untreated control animals that were exposed to carrageenan-λ, but not treated with anything else (negative control group). The neutrophil number for the negative control group was set at 100% and other groups were compared to this.

[3] = LPS stimulation, 50% of the compound's maximum inhibition, averages, read-out: IC50

C#C[C@]1(O)CC[C@H]2[C@@H]3CCC4=CC(=O)CC[C@]4(C)[C@H]3CC[C@@]21C [17α-ethynylandrost-4-ene-3-one-17β-ol]
maximum inhibition of NF-κB (NF-κB): 80%

C[C@]12CC[C@H]3[C@@H](CC=C4C[C@](O)(C(F)(F)C(F)(F)F)CC[C@@]43C)[C@@H]1CC[C@@H]2O [3α-pentafluoroethylandrost-5-ene-3β,17β-diol]
maximum inhibition of NF-κB (NF-κB): 50%

Cc1cc(C)c(/C=C2\C(=O)Nc3ccccc32)[nH]1 [SU5416, Z-3-[(2,4-dimethylpyrrol-5-yl)methylidenyl]-2-indolinone, reference compound]
course of EAE compared to vehicle-treated mice (EAE): very similar to that observed in the vehicle-treated mice

C[C@]12CCCCC1=CC[C@@H]1[C@@H]2CC[C@]2(C)C(=O)[C@H](F)C[C@@H]12 [16α-fluoroandrost-5-ene-17-one]
IC50 (NF-κB; Homo sapiens, THP-1): 0.03 nM

C[C@]12CC[C@H]3[C@@H](CC=C4C[C@](O)(C(F)(F)F)CC[C@@]43C)[C@@H]1CC[C@@H]2O [3α-trifluoromethylandrost-5-ene-3β,17β-diol]
course of EAE compared to vehicle-treated mice (EAE): significantly improved course of EAE
mean cumulative score, treatment period (EAE): 11.2±4.8
mean cumulative score, follow-up period (EAE): 10.8±10.3

C[C@]12CC[C@H](O)CC1=C[C@H](O)[C@@H]1[C@@H]2CC[C@@]2(C)[C@H]1CC[C@]2(C)O [3β,7β,17β-trihydroxy-17α-methylandrost-5-ene]
reversal of the decrease in osteoprotegerin synthesis [1]: normal osteoprotegerin levels at 10 nM

C[C@]12CC[C@H](O)C[C@@H]1CC[C@@H]1[C@@H]2CC[C@]2(C)[C@@H](O)C(=NO)C[C@@H]12 [5α-androstane-3β,17β-diol-16-oxime]
course of EAE compared to vehicle-treated mice (EAE): very similar to that observed in the vehicle-treated mice

CC12CCC(O)CC1=CC(O)C1C2CCC2(C)C1CCC2(O)C(F)(F)F (stereo not drawn) [3β,7β,17β-trihydroxy-17α-trifluoromethylandrost-5-ene]
reversal of the decrease in osteoprotegerin synthesis [1]: normal or basal osteoprotegerin levels at 1 μM compound

C[C@]12CC[C@H]3[C@@H](C(=NO)C=C4C[C@@H](O)CC[C@@]43C)[C@@H]1CC[C@@H]2O [androst-5-ene-3β,17β-diol-7-oxime]
reversal of the decrease in osteoprotegerin synthesis [1]: partially reversed the decrease in osteoprotegerin

C#C[C@@]1(O)CC[C@H]2[C@@H]3[C@@H](O)C=C4C[C@@H](O)CC[C@]4(C)[C@H]3CC[C@@]21C [17β-ethynylandrost-5-ene-3β,7β,17α-triol]
mean cumulative score, treatment period (EAE): 14.9±17.6
mean cumulative score, follow-up period (EAE): 18.4±20.6
EAE incidence (EAE; end of the follow-up period): 85.7%
EAE incidence (EAE; end of the treatment period): 57.1%

C[C@]12CC[C@H](O)C[C@@H]1CC[C@@H]1[C@@H]2CC[C@]2(C)C(=O)[C@H](I)C[C@@H]12 [16α-iodoepiandrosterone]
IC50 (NF-κB; [3]): 1.9 nM

C[C@]12CC[C@H]3[C@@H]([C@H](O)C=C4C[C@@H](O)CC[C@@]43C)[C@@H]1C[C@@H](O)[C@@H]2O [androst-5-ene-3β,7α,16α,17β-tetrol]
reversal of the decrease in osteoprotegerin synthesis [1]: near normal osteoprotegerin levels at 10 nM

C[C@]12CC[C@H](O)C[C@@H]1CC[C@@H]1[C@@H]2CC[C@]2(C)C(=O)[C@@H](Br)C[C@@H]12 [16β-bromoepiandrosterone]
maximum inhibition of NF-κB (NF-κB): 100%
IC50 (NF-κB; [3]): 600 nM

C[C@]12CC[C@H](O)CC1=CC[C@@H]1[C@@H]2CC[C@@]2(C)[C@H]1CC[C@@]2(O)C(F)(F)F [17α-trifluoromethylandrost-5-ene-3β,17β-diol]
course of EAE compared to vehicle-treated mice (EAE): significantly improved course of EAE

3α,17α-ethynylandrostane-3α/β,17β-diol
IC50 (NF-κB; [3]): 0.2 nM

C[C@]12CC[C@H]3[C@@H](CCC4=C[C@H](O)CC[C@@]43C)[C@@H]1CC[C@@H]2O [3α,17β-dihydroxyandrost-4-ene]
dexamethasone induced 11β-HSD mRNA ([1]; similar protocols): decrease
dexamethasone-induced suppression of IL-8 and IL-6 ([1]; similar protocols): statistically significant reversal

C[C@]12CC[C@H]3[C@@H](CCC4C[C@H](O)CC[C@@]43C)[C@@H]1C[C@H](O)[C@@H]2O (stereo partly drawn) [3α,16β,17β-trihydroxyandrostane]
number of neutrophils relative to negative control group (set at 100%) ([2]; 0.001 mg s.c. 24 h and 1 h before carrageenan-λ): 95%
number of neutrophils relative to negative control group (set at 100%) ([2]; 0.01 mg s.c. 24 h and 1 h before carrageenan-λ): 50%
number of neutrophils relative to negative control group (set at 100%) ([2]; 0.1 mg s.c. 24 h and 1 h before carrageenan-λ): 42%

CC12CCC(O)CC1=CC(=O)C1C2CCC2(C)C1CCC2(C)O (stereo not drawn) [3β,17β-dihydroxy-7-oxo-17α-methylandrost-5-ene]
reversal of the decrease in osteoprotegerin synthesis [1]: increased osteoprotegerin levels at 100 nM
